Patent US20240116985A1, “STAPLED PEPTIDES AND METHODS THEREOF” (priority 2020, published 2024)

How the values were obtained:
[1] = biological target: T1, full-length B-Catenin (Uniprot ID P35222) (Homo sapiens, UniProt P35222); experiment: Alphascreen binding assay (beta-catenin / biotin-TCF4 10-53)
T1 construct: 65 nM full-length B-Catenin (Uniprot ID P35222)
T1 sequence (P35222 1-781): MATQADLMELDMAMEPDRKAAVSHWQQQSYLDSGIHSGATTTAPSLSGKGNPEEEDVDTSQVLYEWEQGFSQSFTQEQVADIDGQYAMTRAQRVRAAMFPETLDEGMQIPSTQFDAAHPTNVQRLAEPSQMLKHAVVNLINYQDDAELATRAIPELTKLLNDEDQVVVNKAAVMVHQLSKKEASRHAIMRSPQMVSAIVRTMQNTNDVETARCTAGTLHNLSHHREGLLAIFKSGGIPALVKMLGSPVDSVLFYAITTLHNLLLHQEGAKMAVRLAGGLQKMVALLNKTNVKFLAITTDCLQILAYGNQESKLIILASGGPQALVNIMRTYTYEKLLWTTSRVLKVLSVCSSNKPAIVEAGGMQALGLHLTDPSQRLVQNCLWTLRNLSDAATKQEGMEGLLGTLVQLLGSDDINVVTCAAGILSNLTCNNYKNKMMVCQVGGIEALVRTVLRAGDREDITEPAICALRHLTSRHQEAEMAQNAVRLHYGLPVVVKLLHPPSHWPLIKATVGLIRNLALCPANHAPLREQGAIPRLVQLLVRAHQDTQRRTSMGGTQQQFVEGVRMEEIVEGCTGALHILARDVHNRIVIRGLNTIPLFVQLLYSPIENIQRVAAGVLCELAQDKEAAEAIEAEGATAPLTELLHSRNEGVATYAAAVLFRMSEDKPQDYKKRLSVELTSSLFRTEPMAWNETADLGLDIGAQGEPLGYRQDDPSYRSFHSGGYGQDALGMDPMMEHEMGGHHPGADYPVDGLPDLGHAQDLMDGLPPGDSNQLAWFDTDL
Outline: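 AlphaScreen (Ni-chelate beads) competition in 50 mM Tris pH 8.0, 250 mM NaCl with detergents and 0.1% BSA. Peptide titrated 10 uM–5 nM against 65 nM human β-catenin bound to 10 nM biotinylated TCF4 10-53, 15 min then 60 min with beads, both at 20 °C; 1:1 Hill-slope fit.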

CHI Log D procedure = format: physicochemical; details: for CHI Log D: pH 7.4; for chromatographic logD: pH 7.4, CHI Log D

With `CC(=O)N[C@@H](Cc1ccccc1)C(=O)N[C@@H](CC(=O)O)C(=O)N[C@@H](C)C(=O)N[C@]1(C)CCCCCCC=CCOC(=O)N2CC[C@@](C(=O)N[C@@H](Cc3ccccc3)C(=O)N[C@@H](Cc3c[nH]c4ccccc34)C(=O)N[C@@H](CCC(N)=O)C(N)=O)(C2)NC(=O)[C@H](C(C)C)NC(=O)[C@H](CCc2ccc(O)cc2)NC(=O)[C@H](C)NC(=O)[C@H](C)NC(=O)[C@H](CC(=O)O)NC(=O)[C@H](CC(=O)O)NC1=O` [I-119, Ac-Phe-Asp-Ala-R8-Asp-Asp-Ala-Ala-hTyr-Val-PyrS-Phe-Trp-Gln-NH2] the EC50 [1] was 4.94 µM and the “CHI Log D” value (CHI Log D procedure) was 1.17.

For `CC(=O)N1CCC[C@]12CC=CCCCC1(CCCC=CCCCCCC[C@@](C)(C(=O)N[C@@H](Cc3ccccc3)C(=O)N[C@@H](Cc3c[nH]c4ccccc34)C(=O)N[C@@H](C)C(N)=O)NC(=O)[C@H](C)NC(=O)[C@H](Cc3ccccc3)NC(=O)[C@H](C)NC(=O)[C@H](C)NC(=O)[C@H](CCC(=O)O)NC(=O)[C@H](CC(=O)O)NC1=O)NC(=O)[C@H](C)NC(=O)[C@H](CC(=O)O)NC2=O` (stereo partly drawn) [I-186, Ac-PL3-Asp-Ala-B5-Asp-Glu-Ala-Ala-Phe-Ala-S8-Phe-Trp-Ala-NH2], the EC50 [1] was 0.518 µM and the “CHI Log D” value (CHI Log D procedure) was 2.041.

In the case of `CC(=O)N1CCC[C@]12CC=CCCCC1(CCCC=CCCCCCC[C@@](C)(C(=O)N[C@@H](Cc3ccccc3)C(=O)N[C@@H](Cc3c[nH]c4ccccc34)C(=O)N[C@@H](CCC(N)=O)C(N)=O)NC(=O)[C@H](C(C)C)NC(=O)[C@H](Cc3ccc(C(F)(F)F)cc3)NC(=O)[C@H](C)NC(=O)[C@H](C)NC(=O)[C@H](CC(=O)O)NC(=O)[C@H](CC(=O)O)NC1=O)NC(=O)[C@H](C)NC(=O)[C@H](CC(=O)O)NC2=O` (stereo partly drawn) [I-241, Ac-PL3-Asp-Ala-B5-Asp-Asp-Ala-Ala-4F3MeF-Val-S8-Phe-Trp-Gln-NH2], the EC50 [1] is reported as 3.47 µM and the “CHI Log D” value (CHI Log D procedure) is reported as 2.074.

Compound `CC(=O)N1CCC[C@]12CC=CCCCC1(CCCC=CCCCCCC[C@@](C)(C(=O)N[C@@H](Cc3ccccc3)C(=O)N[C@@H](Cc3c[nH]c4ccccc34)C(=O)N[C@@H](CCC(N)=O)C(N)=O)NC(=O)[C@H](C(C)C)NC(=O)[C@H](Cc3ccccc3)NC(=O)[C@H](C)NC(=O)[C@H](C)NC(=O)[C@H](CCC(=O)O)NC(=O)[C@H](Cc3c[nH]cn3)NC1=O)NC(=O)[C@H](C)NC(=O)[C@H](CC(=O)O)NC2=O` (stereo partly drawn) [I-206, Ac-PL3-Asp-Ala-B5-His-Glu-Ala-Ala-Phe-Val-S8-Phe-Trp-Gln-NH2] has an EC50 [1] of 2.14 µM and a chromatographic logD (CHI Log D procedure) of 2.41.

Work on `CC(=O)N1CCC[C@]12CC=CCCCC1(CCCC=CCCCCCC[C@@](C)(C(=O)N[C@@H](CC(=O)O)C(=O)N[C@@H](Cc3c[nH]c4ccccc34)C(=O)N[C@@H](CCC(N)=O)C(N)=O)NC(=O)[C@H](C(C)C)NC(=O)[C@H](Cc3ccccc3)NC(=O)[C@H](C)NC(=O)[C@H](C)NC(=O)[C@H](CC(=O)O)NC(=O)[C@H](CC(=O)O)NC1=O)NC(=O)[C@H](C)NC(=O)[C@H](CC(=O)O)NC2=O` (stereo partly drawn) [I-283, Ac-PL3-Asp-Ala-B5-Asp-Asp-Ala-Ala-Phe-Val-S8-Asp-Trp-Gln-NH2] yielded an EC50 [1] of 9.54 µM and a chromatographic logD (CHI Log D procedure) of 1.29.

With `CC(=O)N[C@@H](Cc1ccccc1)C(=O)N[C@@H](CC(=O)O)C(=O)N[C@@H](C)C(=O)N[C@]1(C)CCCCCCC=CCOC(=O)N2CC[C@@](C(=O)N[C@@H](Cc3ccc(C(=O)O)cc3)C(=O)N[C@@H](Cc3c[nH]c4ccccc34)C(=O)N[C@@H](CCC(N)=O)C(N)=O)(C2)NC(=O)[C@H](C(C)C)NC(=O)[C@H](Cc2ccccc2)NC(=O)[C@H](C)NC(=O)[C@H](C)NC(=O)[C@H](CC(=O)O)NC(=O)[C@H](CC(=O)O)NC1=O` [I-111, Ac-Phe-Asp-Ala-R8-Asp-Asp-Ala-Ala-Phe-Val-PyrS-4COOHF-Trp-Gln-NH2] the EC50 [1] was 7.64 µM and the “CHI Log D” value (CHI Log D procedure) was 0.779.

For `CC(=O)N1CCC[C@]12CC=CCCCC1(CCCC=CCCCCCC[C@@](C)(C(=O)N[C@@H](Cc3ccccc3)C(=O)N[C@@H](Cc3c[nH]c4ccccc34)C(=O)N[C@@H](CCC(N)=O)C(N)=O)NC(=O)[C@H](C(C)C)NC(=O)[C@H](Cc3ccc(C(F)(F)F)cc3)NC(=O)[C@H](C)NC(=O)[C@H](C)NC(=O)[C@H](CC(=O)O)NC(=O)[C@H](CC(=O)O)NC1=O)NC(=O)[C@H](C)NC(=O)[C@H](CC(=O)O)NC2=O` (stereo partly drawn) [I-242, Ac-PL3-Asp-Ala-B5-Asp-Asp-Ala-Ala-4F3MeF-Val-S8-Phe-Trp-Gln-NH2], the EC50 [1] was 4.91 µM and the “CHI Log D” value (CHI Log D procedure) was 2.098.

In the case of `CC(=O)N1CCC[C@]12CC=CCCCC1(CCCC=CCCCCCC[C@@](C)(C(=O)N[C@@H](Cc3ccccc3)C(=O)N[C@@H](Cc3csc4ccccc34)C(=O)N[C@@H](C)C(N)=O)NC(=O)[C@H](CCC(N)=O)NC(=O)[C@H](Cc3ccccc3)NC(=O)[C@H](C)NC(=O)[C@H](C)NC(=O)[C@H](Cc3ccc4ccccc4c3)NC(=O)[C@H](CC(=O)O)NC1=O)NC(=O)[C@H](C)NC(=O)[C@H](CC(=O)O)NC2=O` (stereo partly drawn) [I-296, Ac-PL3-Asp-Ala-B5-Asp-2NapA-Ala-Ala-Phe-Gln-S8-Phe-BztA-Ala-NH2], the EC50 [1] is reported as 1.91 µM and the chromatographic logD (CHI Log D procedure) is reported as 2.94.

Compound `CC(=O)N1CCC[C@]12CC=CCCCC1(CCCC=CCCCCCC[C@@](C)(C(=O)N[C@@H](Cc3ccccc3)C(=O)N[C@@H](Cc3c[nH]c4ccccc34)C(=O)N[C@@H](CCC(N)=O)C(N)=O)NC(=O)[C@H](C(C)C)NC(=O)[C@H](Cc3ccccc3)NC(=O)[C@H](C)NC(=O)[C@H](C)NC(=O)[C@H](Cc3csc4ccccc34)NC(=O)[C@H](CC(=O)O)NC1=O)NC(=O)[C@H](C)NC(=O)[C@H](CC(=O)O)NC2=O` (stereo partly drawn) [I-231, Ac-PL3-Asp-Ala-B5-Asp-BztA-Ala-Ala-Phe-Val-S8-Phe-Trp-Gln-NH2] has an EC50 [1] of 6.53 µM and a chromatographic logD (CHI Log D procedure) of 3.02.

For `CC(=O)N1CCC[C@]12CC=CCCCC1(CCCC=CCCCCCC[C@@](C)(C(=O)N[C@@H](Cc3ccc(C(F)(F)F)cc3)C(=O)N[C@@H](Cc3c[nH]c4ccccc34)C(=O)N[C@@H](CCC(N)=O)C(N)=O)NC(=O)[C@H](C(C)C)NC(=O)[C@H](Cc3ccccc3)NC(=O)[C@H](C)NC(=O)[C@H](C)NC(=O)[C@H](CC(=O)O)NC(=O)[C@H](CC(=O)O)NC1=O)NC(=O)[C@H](C)NC(=O)[C@H](CC(=O)O)NC2=O` (stereo partly drawn) [I-253, Ac-PL3-Asp-Ala-B5-Asp-Asp-Ala-Ala-Phe-Val-S8-4F3MeF-Trp-Gln-NH2], the EC50 [1] was 3.69 µM and the “CHI Log D” value (CHI Log D procedure) was 2.214.

With `CC(=O)N1CCC[C@]12CC=CCCCC1(CCCC=CCCCCCC[C@@](C)(C(=O)N[C@@H](Cc3ccccc3)C(=O)N[C@@H](Cc3c[nH]c4ccccc34)C(=O)N[C@@H](CCC(N)=O)C(N)=O)NC(=O)[C@H](C(C)C)NC(=O)[C@H](Cc3ccccc3)NC(=O)[C@H](C)NC(=O)[C@H](C)NC(=O)[C@H](Cc3ccc(C(F)(F)F)cc3)NC(=O)[C@H](CC(=O)O)NC1=O)NC(=O)[C@H](C)NC(=O)[C@H](CC(=O)O)NC2=O` (stereo partly drawn) [I-246, Ac-PL3-Asp-Ala-B5-Asp-4F3MeF-Ala-Ala-Phe-Val-S8-Phe-Trp-Gln-NH2] the EC50 [1] was 3.97 µM and the “CHI Log D” value (CHI Log D procedure) was 3.01.

With `CC(=O)N1CCC[C@]12CC=CCCCC1(CCCC=CCCCCCC[C@@](C)(C(=O)N[C@@H](Cc3ccccc3)C(=O)N[C@@H](Cc3c[nH]c4ccccc34)C(=O)N[C@@H](CCC(N)=O)C(N)=O)NC(=O)[C@H](C(C)C)NC(=O)[C@H](Cc3c[nH]cn3)NC(=O)[C@H](C)NC(=O)[C@H](C)NC(=O)[C@H](CC(=O)O)NC(=O)[C@H](CC(=O)O)NC1=O)NC(=O)[C@H](C)NC(=O)[C@H](CC(=O)O)NC2=O` (stereo partly drawn) [I-321, Ac-PL3-Asp-Ala-B5-Asp-Asp-Ala-Ala-His-Val-S8-Phe-Trp-Gln-NH2] the EC50 [1] was 2.24 µM and the “CHI Log D” value (CHI Log D procedure) was 2.073.
